Laboratory results from PubChem BioAssay (NCI).
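How tested: cells in 96-well plates exposed to compound for 48 hours at five concentrations. At the TGI there is no net growth.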

How the values were obtained:
Experiment in all cases: growth of human tumour cells (NCI), 48 h
SF-539 CNS = test system: SF-539 CNS
SR leukemia = test system: SR leukemia
HT29 colon = test system: HT29 colon
MDA-MB-231 breast = test system: MDA-MB-231 breast
K-562 leukemia = test system: K-562 leukemia
A498 renal = test system: A498 renal
SN12C renal = test system: SN12C renal
SW-620 colon = test system: SW-620 colon
UO-31 renal = test system: UO-31 renal
TK-10 renal = test system: TK-10 renal
SK-MEL-28 melanoma = test system: SK-MEL-28 melanoma
SK-MEL-5 melanoma = test system: SK-MEL-5 melanoma
MDA-MB-435 = test system: MDA-MB-435
NCI-H522 lung = test system: NCI-H522 lung
OVCAR-8 ovarian = test system: OVCAR-8 ovarian
SK-OV-3 ovarian = test system: SK-OV-3 ovarian
CCRF-CEM leukemia = test system: CCRF-CEM leukemia
EKVX NSCLC = test system: EKVX NSCLC
HCT-116 colon = test system: HCT-116 colon
MOLT-4 leukemia = test system: MOLT-4 leukemia
RXF 393 renal = test system: RXF 393 renal
U251 CNS = test system: U251 CNS
KM12 colon = test system: KM12 colon
A549 NSCLC = test system: A549 NSCLC
PC-3 prostate = test system: PC-3 prostate
RPMI-8226 leukemia = test system: RPMI-8226 leukemia
IGROV1 ovarian = test system: IGROV1 ovarian
OVCAR-3 ovarian = test system: OVCAR-3 ovarian
HOP-92 NSCLC = test system: HOP-92 NSCLC
NCI-H460 lung = test system: NCI-H460 lung
M14 melanoma = test system: M14 melanoma
NCI-H226 lung = test system: NCI-H226 lung
MCF7 breast = test system: MCF7 breast
DU-145 prostate = test system: DU-145 prostate
LOX IMVI melanoma = test system: LOX IMVI melanoma
MALME-3M melanoma = test system: MALME-3M melanoma
UACC-62 melanoma = test system: UACC-62 melanoma
SF-268 CNS = test system: SF-268 CNS
ACHN renal = test system: ACHN renal
786-0 renal = test system: 786-0 renal
UACC-257 melanoma = test system: UACC-257 melanoma
OVCAR-4 ovarian = test system: OVCAR-4 ovarian
CAKI-1 renal = test system: CAKI-1 renal
T-47D breast = test system: T-47D breast
HOP-62 NSCLC = test system: HOP-62 NSCLC
HCC-2998 colon = test system: HCC-2998 colon
NCI/ADR-RES ovarian = test system: NCI/ADR-RES ovarian
HCT-15 colon = test system: HCT-15 colon
COLO 205 colon = test system: COLO 205 colon
SNB-19 CNS = test system: SNB-19 CNS
SNB-75 CNS = test system: SNB-75 CNS
SF-295 CNS = test system: SF-295 CNS
SK-MEL-2 melanoma = test system: SK-MEL-2 melanoma
NCI-H23 lung = test system: NCI-H23 lung
HS 578T breast = test system: HS 578T breast
MDA-N = test system: MDA-N
HL-60(TB) leukemia = test system: HL-60(TB) leukemia
BT-549 breast = test system: BT-549 breast
OVCAR-5 ovarian = test system: OVCAR-5 ovarian

Measured: TGI

Cc1cc2c3c(c1)CCCN3CCC2
not listed: BT-549 breast | OVCAR-5 ovarian
> 10 µM: all other assays above

Cn1cnnc1SC(F)(F)c1nc2ccccc2o1
not listed: EKVX NSCLC | LOX IMVI melanoma | SNB-19 CNS | HS 578T breast | HL-60(TB) leukemia
> 100 µM: all other assays above

CC1(CCCCO)C=CC(S(=O)(=O)c2ccccc2)CC1 (stereo not given)
13.6 µM: A549 NSCLC
17 µM: RXF 393 renal
18 µM: EKVX NSCLC
11.6 µM: K-562 leukemia
7.04 µM: HOP-92 NSCLC
18.3 µM: UACC-62 melanoma
27.5 µM: BT-549 breast
12.6 µM: HCT-116 colon
17.7 µM: DU-145 prostate
9.03 µM: NCI-H226 lung
12.4 µM: SF-268 CNS
13.3 µM: HCT-15 colon | SNB-75 CNS
23.9 µM: CAKI-1 renal
15.1 µM: PC-3 prostate
10.4 µM: NCI-H522 lung
21.5 µM: U251 CNS
19.1 µM: TK-10 renal
16.3 µM: UO-31 renal
11 µM: RPMI-8226 leukemia
17.8 µM: NCI-H23 lung
22.7 µM: SK-OV-3 ovarian
11.2 µM: CCRF-CEM leukemia
18.1 µM: ACHN renal
12.5 µM: NCI/ADR-RES ovarian
14.8 µM: 786-0 renal
19.6 µM: HCC-2998 colon
22.8 µM: OVCAR-4 ovarian
16.4 µM: MDA-MB-231 breast
23.2 µM: OVCAR-8 ovarian
14.9 µM: MOLT-4 leukemia
10.9 µM: UACC-257 melanoma
17.5 µM: OVCAR-5 ovarian
12.2 µM: M14 melanoma
11.3 µM: MCF7 breast
20.2 µM: SF-539 CNS
8.45 µM: KM12 colon
23.1 µM: SK-MEL-2 melanoma
28.5 µM: SK-MEL-28 melanoma
5.91 µM: HT29 colon
19 µM: OVCAR-3 ovarian
13.2 µM: NCI-H460 lung
6.71 µM: SR leukemia
12.1 µM: IGROV1 ovarian | MALME-3M melanoma | HOP-62 NSCLC
20.6 µM: SW-620 colon
23.6 µM: SN12C renal
14.4 µM: COLO 205 colon | MDA-N
21.7 µM: A498 renal
24.4 µM: SF-295 CNS
21.8 µM: MDA-MB-435
3.65 µM: LOX IMVI melanoma
26.6 µM: SNB-19 CNS
15.4 µM: SK-MEL-5 melanoma

O=C1c2ccccc2-n2c1nc1ccc(Cl)cc1c2=O
31.1 µM: MDA-MB-435
48.3 µM: MDA-N
44.8 µM: RXF 393 renal
92.7 µM: UACC-62 melanoma
75.5 µM: SNB-75 CNS
13.8 µM: CCRF-CEM leukemia
not listed: SK-MEL-28 melanoma | NCI-H522 lung | MALME-3M melanoma | SF-268 CNS | HS 578T breast | HL-60(TB) leukemia
> 100 µM: all other assays above
